Here are results for three compounds from BindingDB's records for doi:10.1021/jm050524f (The Scripps Research Institute, 2005).

The target of test [1] is Hypoxia-inducible factor 1-alpha (Homo sapiens, UniProt Q16665). Nature of the test: Effective concentration to inhibit production of hypoxia inducible factor 1-alpha protein.
Test [2] is described as follows: Inhibitory concentration against NADH ubiquinone oxidoreductase.
A short description of test [3]: Inhibitory concentration against NADH-ubiquinone oxidoreductase.

Hypoxia-inducible factor 1-alpha, sequence (Q16665 whole entry): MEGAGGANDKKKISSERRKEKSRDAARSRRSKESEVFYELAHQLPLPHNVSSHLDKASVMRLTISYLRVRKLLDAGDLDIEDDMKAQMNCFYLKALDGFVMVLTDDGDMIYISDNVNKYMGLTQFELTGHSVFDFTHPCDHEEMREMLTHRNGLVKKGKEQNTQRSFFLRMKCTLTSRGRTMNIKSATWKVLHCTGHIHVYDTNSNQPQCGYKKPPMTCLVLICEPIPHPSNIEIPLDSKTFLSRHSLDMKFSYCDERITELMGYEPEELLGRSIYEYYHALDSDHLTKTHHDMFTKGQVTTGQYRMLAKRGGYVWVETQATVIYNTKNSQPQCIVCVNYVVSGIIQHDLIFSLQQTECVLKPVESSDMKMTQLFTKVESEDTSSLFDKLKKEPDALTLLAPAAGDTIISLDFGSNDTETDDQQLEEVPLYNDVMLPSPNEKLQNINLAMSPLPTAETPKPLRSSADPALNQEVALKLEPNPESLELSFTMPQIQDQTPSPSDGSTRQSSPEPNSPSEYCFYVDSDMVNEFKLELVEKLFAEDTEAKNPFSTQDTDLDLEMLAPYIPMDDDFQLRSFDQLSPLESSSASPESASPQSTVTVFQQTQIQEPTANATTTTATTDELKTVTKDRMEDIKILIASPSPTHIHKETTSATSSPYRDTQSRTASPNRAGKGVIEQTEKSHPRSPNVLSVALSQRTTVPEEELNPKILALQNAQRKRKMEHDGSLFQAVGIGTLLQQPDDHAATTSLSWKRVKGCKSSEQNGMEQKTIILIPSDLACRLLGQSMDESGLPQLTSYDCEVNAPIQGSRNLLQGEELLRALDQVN

By EC50 is commonly meant the concentration needed to bring the measured effect to its halfway point. `COc1c(C(C)n2cnc3ncccc32)ccc2c1C=CC(C)(C)O2` (stereo not given) [1-[1-(5-Methoxy-2,2-dimethyl-2H-chromen-6-yl)-ethyl]-1H-imidazo[4,5-b]pyridine] gave a concentration giving a half-maximal response (EC50) in test [1] of 35000 nM. This counts as double-digit micromolar.

As usually defined, the IC50 is the point on the concentration scale where inhibition reaches its midpoint. Low readings indicate greater potency in that assay, high ones weaker potency in that assay. On to `C=C(Cc1cc(OC)c(OC)c(OC)c1)c1ccc2c(c1)CCC(C)(C)O2` [2,2-Dimethyl-6-[1-(3,4,5-trimethoxy-benzyl)-vinyl]-chroman], for which the IC50 in test [2] and in test [3] was 18 nM throughout. Regarding `COc1cc(COC(=O)c2ccc3c(c2)C=CC(C)(C)O3)cc(OC)c1OC` [2,2-Dimethyl-2H-chromene-6-carboxylic acid 3,4,5-trimethoxy-benzyl ester], the half-maximal inhibitory concentration (IC50) in test [2] and in test [3] was 55 nM in each case.
